# Patent US20040106802A1, “Novel compounds and therapeutic uses thereof” (TORRENT PHARMACEUTICALS LTD., priority 2002, published 2004)
# Where a name gives a salt, the structure may show the parent alone. Read-outs that look alike come from different tables or passages of the source.
# Molecular target: T1, Porcine DPP-IV (Sus scrofa, UniProt P22411)
# T1 construct: purchased Sigma-Aldrich Germany
# Experiment: Assay of DPP-IV enzyme inhibitory activity (spectrophotometric, Gly-Pro-pNA cleavage)
# Assay type: biochemical
# Conditions: Porcine DPP-IV, Gly-Pro-pNA substrate, 30° C., mean ± SD of three experiments except compound Nos. 133 & 139, read-out: IC50 (μM) Mean ± SD, inhibitory activity on DPP-IV enzyme activity
# Experimental: Assay of DPP-IV Enzyme Inhibitory Activity.
# The assay method is a modified method (as described by Welch et al, 1998) based on spectrophotometric determination of the product formed by penultimate proline cleaving activity of the enzyme.
# Assay protocol involves incubation of the enzyme dipeptidyl peptidase IV with the test substance at 30° C. for 30 min followed by addition of this reaction mixture to the substrate Gly-Pro-pNA that was equilibrated at 30° C. for 2 min. The enzyme cleaves the substrate at penultimate proline and releases p-nitroanilide, the optical density of which is measured at 385 nm. The formation of p-nitroanilide will be reduced in the presence of inhibitor. […] The activity of molecule is expressed in terms of % inhibition. At least three different concentrations were tried out for each of the test substances. The percentage inhibitions for each of the concentrations were plotted and an IC50 of the test compound was worked out. The enzyme inhibitory activity of different test compounds were compared based on the IC50 values.
# The percentage inhibition % I, is calculated using the formula:
# % I=[(1−vi/v0)]*100 where vi and v0 are the Vmax values with and without the test substance, respectively.
# Substrate solution: 0.5 mM in 45 mM phosphate buffer
# Substrate used: Gly-Pro-p-nitroanilide (Source: Sigma-Aldrich Co. Germany)
# 3.288 mg substrate in 1 ml 45 mM phosphate buffer was prepared as stock solution. 0.25 ml of this stock solution was diluted to 5 ml to get 0.5 mM substrate solution (90 μl to be added in each well). The stock solution of the substrate was used within three days of preparation.
# Enzyme solution: Porcine DPP-IV (Sigma-Aldrich Germany) was used throughout the study. 0.4 mU in 80 μl of Tris. HCl buffer was prepared. Fresh solutions were prepared everyday for the assays.
# Various concentrations of inhibitor were used: 0.391 μM, 0.781 μM, and 3.125 μM. Solutions of inhibitor were prepared and used on the same day.
# 280 μl of enzyme solution (0.4-mU/80 μl in Tris HCl buffer) was added to the eppendorf containing 70 μl solution of inhibitor or vehicle and mixed. This reaction mixture was incubated for 30 min at 30° C. The 96 well plate containing substrate solution was thermally equilibrated in the spectrophotometer for 2 min at 30° C. Later 100 μl of the enzyme-inhibitor pre-incubation solution was added to respective wells in a 96 well plate. Each concentration of the inhibitor was tested in triplicates.
# The rate of change in UV absorbance (in presence of various concentrations of the inhibitor) was measured at 385 nm, with respect to wells containing only 0.5 mM substrate in 45 mM phosphate buffer as blank at every 10 min for 2 hours after adding enzyme-inhibitor mixture to wells containing substrate solution.
# T1 sequence (P22411 whole entry): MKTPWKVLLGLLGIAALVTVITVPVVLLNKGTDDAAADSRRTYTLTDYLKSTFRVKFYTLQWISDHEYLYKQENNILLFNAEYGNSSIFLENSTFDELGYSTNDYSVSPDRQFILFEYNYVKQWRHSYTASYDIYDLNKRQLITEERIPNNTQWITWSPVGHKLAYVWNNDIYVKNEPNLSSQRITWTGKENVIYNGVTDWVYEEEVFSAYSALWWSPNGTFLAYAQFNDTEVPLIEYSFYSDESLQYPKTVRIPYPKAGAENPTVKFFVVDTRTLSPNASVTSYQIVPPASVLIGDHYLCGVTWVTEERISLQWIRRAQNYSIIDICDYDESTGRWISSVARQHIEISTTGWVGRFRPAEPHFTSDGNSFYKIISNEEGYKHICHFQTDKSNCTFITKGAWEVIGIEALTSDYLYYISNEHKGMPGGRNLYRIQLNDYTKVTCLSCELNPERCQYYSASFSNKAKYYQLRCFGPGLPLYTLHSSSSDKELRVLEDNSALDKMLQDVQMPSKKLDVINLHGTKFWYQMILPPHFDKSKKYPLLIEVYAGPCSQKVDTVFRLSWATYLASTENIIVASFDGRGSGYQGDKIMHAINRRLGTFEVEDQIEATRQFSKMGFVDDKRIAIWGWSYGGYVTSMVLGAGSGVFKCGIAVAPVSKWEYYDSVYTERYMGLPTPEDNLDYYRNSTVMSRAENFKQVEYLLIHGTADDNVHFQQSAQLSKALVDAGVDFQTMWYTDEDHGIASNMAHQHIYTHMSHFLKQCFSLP
Structure (SMILES),IC50 [µM],IC50 (trihydrochloride) [µM]
"N#CC1CSCN1C(=O)CN(N)C1CCN(Cc2ccccc2)CC1 (stereo not shown) [Compound No. 81, 3-[1-Oxo-2-[1-(1-phenylmethyl-piperidin-4-yl)]-hydrazino]-ethyl-4-cyanothiazolidine trifluoroacetate]",1.63 ± 0.15,–
N#CC1CSCN1C(=O)CN1CCCCN1 (stereo not shown) [Compound No. 83],82 ± 18,–
"CC(C)NN(CC(=O)N1CSCC1C#N)C1CCC(NS(C)(=O)=O)CC1 (stereo not shown) [Compound No. 84, 3-[1-Oxo-2-(1-(1-methanesulphonylamino-4-cyclohexyl)-2-isopropyl) hydrazino]ethyl-4-cyanothiazolidine trifluoroacetate]",5.78 ± 0.18,–
"N#CC1CSCN1C(=O)CN(N)C1CCC(NC(=O)c2ccc(F)cc2)CC1.O=C(O)C(F)(F)F (stereo not shown) [Compound No. 100, 3-[1-oxo-2-[1-(4-fluorobenzoyl)aminocyclohexan-4-yl)]hydrazino]ethyl-4-cyanothiazolidine trifluoroacetate]",0.93 ± 0.015,–
"N#Cc1cc(CN2CCC(N(N)CC(=O)N3CSCC3C#N)CC2)ccc1-c1ccccc1 (stereo not shown) [Compound No. 109, 3-[1-oxo-2-[1-(1-(2-cyanobiphenyl-4-yl)methyl)piperidine-4-yl]hydrazino]ethyl-4-cyanothiazolidine bis-trifluoroacetate]",1.02 ± 0.14,–
"N#Cc1ccc(NC(=O)CNC2CCC(N(N)CC(=O)N3CSCC3C#N)CC2)cc1 (stereo not shown) [Compound No. 112, 3-[1-oxo-2-[1-(4-(2-oxo-2-(4-cyanophenyl)aminoethyl)aminocyclohex-1-yl)]hydrazino]ethyl-4-cyanothiazolidine bis-trifluoroacetate]",1.47 ± 0.07,–
"N#CC1CCCN1C(=O)CN(N)C1CCN(CC(=O)Nc2ccc(Cl)cn2)CC1 (stereo not shown) [compound 124, 3-[1-oxo-2-(1-(1-(2-oxo-2-(5-chloropyridin-2-yl)aminoethyl)piperidin-4-yl))hydrazino]ethyl-2-cyanopyrrolidine, tris-trifluoroacetate]",3.7 ± 0.5,–
N#CC1CSCN1C(=O)CN(N)C1CCN(CCC(=O)NC2CC2)CC1 (stereo not shown) [compound 132],1.77 ± 0.167,–
"COC(=O)NN(CC(=O)N1CSCC1C#N)C1CCN(CC(=O)Nc2ccc(Cl)cn2)CC1 (stereo not shown) [compound 133, 3-[1-oxo-2-(1-(1-(2-oxo-2-(5-chloropyridin-2-yl)aminoethyl)piperidine-4-yl)-2-methoxycarbonyl)hydrazino]ethyl-4-cyanothiazolidine, trihydrochloride]",40.4 ± 6.4,–
N#CC1CSCN1C(=O)CN(N)C1CCN(CC(=O)Nc2nc3ccccc3s2)CC1 (stereo not shown) [compound 138],0.104 ± 0.009,–
"N#CC1CSCN1C(=O)CN(N)C1CCN(CC(=O)Nc2nc3ccccc3s2)CC1 (stereo not shown) [compound 144, 3-[1-oxo-2-(1-(1-(2-oxo-2-(benzothiazole-2-yl)aminoethyl)piperidine-4-yl)) hydrazine]ethyl-4-cyanothiazolidine, trihydrochloride]",–,0.167 ± 0.007
"CC(C)(C)OC(=O)NNCC(=O)N1COCC1C#N (stereo not shown) [compound 147, 3-[-oxo-2-(2-ter-butyloxycarbonyl) hydrazino]ethyl-4-cyanooxazolidine]",150 ± 43,–

# Second part, led by results:
IC50 [µM],Structure (SMILES),IC50 (trihydrochloride) [µM]
0.66 ± 0.1,N#CC1CSCN1C(=O)CN(N)C1CCC(NS(=O)(=O)c2ccc(Cl)cc2)CC1 (stereo not shown) [Compound No. 82],–
0.525 ± 0.098,"N#CC1CSCN1C(=O)CN(N)C1CCN(CC(=O)N2CCOCC2)CC1 (stereo not shown) [Compound No. 107, 3-[1-oxo-2-[1-(1-(−2-oxo-2(morpholin-4-yl)ethyl)piperidin-4-yl)]hydrazino]ethyl-4-cyanothiazolidine bis-trifluoroacetate]",–
0.83 ± 0.05,"N#CC1CSCN1C(=O)CN(N)C1CCN(C(=O)CN2CCOCC2)CC1 (stereo not shown) [Compound No. 110, 3-[1-oxo-2-[1-(1-(1-oxo-2-(morpholin-4-yl)ethyl)piperidin-4-yl)]hydrazino]ethyl-4-cyanothiazolidine bis-trifluoroacetate]",–
0.563 ± 0.077,"N#CC1CSCN1C(=O)CN(N)C1CCC(NCC(=O)Nc2ccc(Cl)cn2)CC1 (stereo not shown) [Compound No. 111, 3-[1-oxo-2-[1-(4-(2-oxo-2-(5-chloropyridin-2-yl)aminoethyl)aminocyclohex-1-yl)]hydrazino]ethyl-4-cyanothiazolidine tris-trifluoroacetate]",–
1.06 ± 0.3,"N#CC1CSCN1C(=O)CN(N)C1CCC(NCC(=O)Nc2ccc(Cl)cc2)CC1 (stereo not shown) [Compound No. 113, 3-[1-oxo-2-[1-(4-(2-oxo-2-(4-chlorophenyl)aminoethyl)aminocyclohex-1-yl)]hydrazino]ethyl-4-cyanothiazolidine bis-trifluoroacetate]",–
0.51 ± 0.05,"N#CC1CSCN1C(=O)CN(N)C1CCN(CC(=O)NCc2ccccc2F)CC1 (stereo not shown) [compound 122, 3-[1-oxo-2-(1-(1-(2-oxo-2-(2-flurobenzyl)aminoethyl)piperidine-4-yl))hydrazino]ethyl-4-cyanothiazolidine, bis-trifluoroacetate]",–
0.676 ± 0.07,N#CC1CSCN1C(=O)CN(N)C1CCN(CCOc2ccccc2)CC1 (stereo not shown) [compound 123],–
0.506 ± 0.06,"N#CC1CSCN1C(=O)CN(N)C1CCN(CC(=O)NC2CCCCC2)CC1 (stereo not shown) [compound 125, 3-[1-oxo-2-(1-(1-(2-oxo-2-cyclohexyl)aminoethyl)piperidin-4-yl)hydrazino]ethyl-4-cyanothiazoline, bis-trifluoroacetate]",–
0.468 ± 0.005,CC(C)OCCCNC(=O)CN1CCC(N(N)CC(=O)N2CSCC2C#N)CC1 (stereo not shown) [compound 126],–
0.342 ± 0.035,"N#CC1CSCN1C(=O)CN(N)C1CCN(CC(=O)Nc2ccc(F)c(Cl)c2)CC1 (stereo not shown) [compound 128, 3-[1-oxo-2-(1-(1-(2-oxo-2-(3-chloro-4-fluoro-phenyl)aminoethyl)piperidine-4-yl))hydrazino]ethyl-4-cyanothiazolidine, bis-trifluoroacetate]",–
0.362 ± 0.06,"CCOC(=O)Cc1csc(NC(=O)CN2CCC(N(N)CC(=O)N3CSCC3C#N)CC2)n1 (stereo not shown) [compound 129, 3-[1-oxo-2-(1-(1-(2-oxo-2-(4-ethoxycarbonylmethylthiazole-2-yl)aminoethyl)piperidine-4-yl)) hydrazino]ethyl-4-cyanothiazolidine, tris-trifluoroacetate]",–
0.205 ± 0.011,"N#CC1CSCN1C(=O)CN(N)C1CCN(CC(=O)Nc2nccs2)CC1 (stereo not shown) [compound 134, 3-[1-oxo-2-(1-(1-(2-oxo-2-(thiazole-2-yl)-aminoethyl)piperidin-4-yl))hydrazino]ethyl-4-cyanothiazolidine, tris-trifluoroacetate]",–
1.03 ± 0.035,"COCCNC(=O)CN1CCC(N(N)CC(=O)N2CSCC2C#N)CC1 (stereo not shown) [compound 135, 3-[1-oxo-2-(1-(1-(2-oxo-2-(2-methoxyethyl)aminoethyl)piperidin-4-yl))hydrazino]ethyl-4-cyanothiazolidine, bis-trifluoroacetate]",–
0.21 ± 0.004,"N#CC1CSCN1C(=O)CN(N)C1CCN(CC(=O)Nc2ccccn2)CC1 (stereo not shown) [compound 136, 3-[1-oxo-2-(1-(1-(2-oxo-2-(pyridin-2-yl)aminoethyl)piperidine-4-yl))hydrazino]ethyl-4-cyanothiazolidine, tris-trifluoroacetate]",–
0.485 ± 0.01,"Cc1cnc(C(=O)NC2CCC(N(N)CC(=O)N3CSCC3C#N)CC2)cn1 (stereo not shown) [compound 139, 3-[1-oxo-2-(1-(1-(5-methylpyrazine-2-ylcarbonyl)amino-4-cyclohexyl)) hydrazino]ethyl-4-cyanothiazolidine, tris-trifluoroacetate]",–
0.715 ± 0.06,"Cc1nc(NC(=O)CN2CCC(N(N)CC(=O)N3CSCC3C#N)CC2)sc1C (stereo not shown) [compound 145, trihydrochloride]",–
